Reference: patent US20090306612A1, “ABSORBENT ARTICLE” (SCA HYGIENE PRODUCTS AB, priority 2006, published 2009)

What was measured:
Type in all cases: cell-based
E. coli = test: Bacterial growth in absorbent cores (method 4), E. coli
Method: (§1) 16 ml (corresponding to a maximum absorption capacity of a test specimen according to method 1) of test liquid 1 containing the bacteria were added to a test specimen placed in plastic tubs, and a lid was fitted on the tubs. The tubs were turned upside down and incubated in a warm cabinet at 35° C. After incubation for 0, 6 and 12 hours, the test samples were placed in a plastic bag with peptone water and the content was homogenized (agitated and worked up) in a stomacker for 3 minutes. The homogenate was diluted in dilution tubes with peptone water and a microbiological culture was spread on agar plates. Slanetz Bartley agar was used for E. faecalis, and Drigalski agar for E. coli and P. mirabilis. The specimens were incubated at 35° C. for 1-2 days before the colonies were counted and the log CFU/ml calculated. Control tests were also carried out with absorbent cores without NaCl.
(§2) Bacteria were cultured in nutrient broth and diluted to the desired concentration of about Log 3.3 in test liquid 1 (method 4). Absorbent test specimens were produced according to method 1. […] The bacterial growth was measured according to method 4.
(§3) Absorbent cores were produced according to method 1. […] The bacterial growth of E. coli, P. mirabilis and E. faecalis was measured after 0, 6 and 12 hours according to method 4. […]

E. faecalis = test: Bacterial growth in absorbent cores (method 4), E. faecalis
Method: as §1, §2, §3

Proteus mirabilis = test: Ammonia formation in absorbent cores (method 3); details: Example 2, FIG. 5; specimen containing 29% by weight of NaCl; after 6 and 8 hours
Method: Absorbent test specimens were produced according to method 1. A bacterial suspension of Proteus mirabilis was cultured in nutrient solution at 30° C. overnight. The grafted cultures were diluted with test liquid 1 and the quantity of bacteria was determined. The final culture contained approximately 10^5 organisms per ml of test liquid. The absorbent core was placed in a plastic tub and test liquid 1 containing bacteria was added to the absorbent core, after which the container was incubated at 35° C. for 4, 6 and 8 hours, and then the specimens were removed from the container using a hand pump and a so-called Drager tube. The ammonia content was obtained as a color change on a scale graduated in ppm or percent by volume.
Absorbent test specimens were produced according to method 1. 16 ml, maximum absorption capacity, of test liquid 1 containing bacteria were added to a test specimen. 29 (high), 22 (medium) and 12 (low) % by weight of NaCl (% dry) and 22 (medium) % by weight of CaCl2 (% dry) were added to the core. The quantity of developed ammonia was measured according to method 3 after 6 and 8 hours. […]
Absorbent test specimens were produced according to method 1. […] The quantity of added pH-reducing substance was 5% by weight of the pulp. […] The quantity of developed ammonia was measured according to method 3 after 6 and 8 hours.

P. mirabilis = test: Bacterial growth in absorbent cores (method 4), P. mirabilis
Method: as §1, §2, §3

[1] = 3% added salt (% wet) = 29% by weight (% dry), NaCl high in FIG. 4, 12 hours, 35° C., 16 ml test liquid 1 (maximum load), start about Log 3.3, method counts log CFU/ml
[2] = Example 1, FIG. 4, 29, 22 and 12% by weight NaCl (% dry), after 6 and 12 hours, inhibition better with higher salt content

[Cl-].[Na+] [NaCl]
growth of E. coli after 12 hours (E. coli; [1]): < 5.5 log | growth of E. coli compared with the control tests (E. coli; [2]): lower | growth of E. faecalis after 12 hours (E. faecalis; [1]): < 5.5 log | growth of E. faecalis compared with the control tests (E. faecalis; [2]): lower | development of NH3, ranking among the specimens (Proteus mirabilis): lowest development of NH3 | growth of P. mirabilis after 12 hours (P. mirabilis; [1]): < 5.5 log | growth of P. mirabilis compared with the control tests (P. mirabilis; [2]): lower
